Reference: patent publication US20240335429A1, “MOLECULAR GLUE AND SALL4 DEGRADER” (National University of Singapore, priority 2021, published 2024)

Legend:
cleaved PARP = assay: Immunoblot of cleaved PARP (apoptotic marker) in SNU-398 cells; assay type: cell-based, human; conditions: SNU-398 HCC cells, 24 h
Procedure: (§1) RIPA buffer containing freshly added protease inhibitors (2 mM PMSF) and protease inhibitor cocktail was used for cell lysis. The lysed cells were incubated for 10 min on ice and subsequently centrifuged at 4° C. for 10 min at 14,000 rpm. The protein concentrations of cell lysates were assessed using Bradford Assay as per manufacturer's instructions. The samples were denatured using 4× Sample buffer at 95° C. for 5 min. The samples were size resolved using polyacrylamide gel (8%) and Mini-PROTEAN Tetra Cell module. The size-resolved proteins were transferred onto PVDF via electroblotting using Mini Trans-Blot® module. The membrane was blocked using 5% BSA in TBST. The membrane was incubated with appropriate primary antibody (overnight) and secondary antibody (1 h). Immobilon Crescendo Western HRP substrate was used for signal development and images were acquired using darkroom development techniques.

RBBP4 = assay: Immunoblot of RBBP4 in SNU-398 cells; assay type: cell-based, human; conditions: 16 μM, 24 h
Procedure: as §1
26S proteasome complex and neddylation was inhibited by cotreating MG132 at 1 and 3 μM and MLN4924 at 10 and 15 μM for 18 h, 20 h, 24 h or 48 h with desired concentrations of QE-18-WG07 in SNU-398, H661 and SNU-182 cells. After 18 h or 24 h of treatment, cells were then lysed and subjected to further protein extraction and immunoblotting by following the protocol in Example 4. For caspase glo assay, 20 h of cotreatment was performed by following the protocol in Example 5. […]

[1] = tested on: SNU-387, SNU-449, SNU-475, and H1299 cells; assay: CellTiter-Glo viability assay, SALL4-low cell panel; assay type: cell-based, human; conditions: 72 h cell viability panel of HCC and lung cancer cell lines
Procedure: (§2) Cells were plated in RPMI culture media (40 μL) in 384-well white, flat-bottom plates (Corning) and incubated at 37° C. in a humidified atmosphere of 5% CO2 overnight. The numbers of cells per well were 1,500 for SNU-398 and SNU-182, 750 for SNU-387, SNU-449, SNU-475 and SNU-423, and 1,000 for H661 and H1299. After overnight incubation, 10 μL of drug (1% DMSO in RPMI) at designed concentrations were added to the cells. The cells were then incubated for 16, 24, 48, 72, or 96 h at 37° C. in a humidified atmosphere of 5% CO2 before CellTiter-Glo reagent (10 μL) was dispensed to the wells. The cells were incubated at room temperature for a minimum of 10 min. After that, luminescence readings were recorded by a Microplate Reader (PHERAstar or Tecan Infinite M200 Pro) according to the manufacturer's instruction for measuring the luminescence.

[2] = as above; assay type: cell-based, human; conditions: human, SNU-387, SNU-449, SNU-475 and H1299 cells (SALL4-low); SALL4-low cells, highest dose 30 μM, 72 h; read-out: cells remained viable
Procedure: as §2

SALL4B = target: T1, SALL4B (Homo sapiens, UniProt Q9UJQ4); assay: Immunoblot of endogenous SALL4B in SNU-398 HCC cells; assay type: cell-based
T1 construct: endogenous in cells; host or cells: SNU-398 HCC cells
T1 sequence (Q9UJQ4 1-616 isoform Q9UJQ4-2): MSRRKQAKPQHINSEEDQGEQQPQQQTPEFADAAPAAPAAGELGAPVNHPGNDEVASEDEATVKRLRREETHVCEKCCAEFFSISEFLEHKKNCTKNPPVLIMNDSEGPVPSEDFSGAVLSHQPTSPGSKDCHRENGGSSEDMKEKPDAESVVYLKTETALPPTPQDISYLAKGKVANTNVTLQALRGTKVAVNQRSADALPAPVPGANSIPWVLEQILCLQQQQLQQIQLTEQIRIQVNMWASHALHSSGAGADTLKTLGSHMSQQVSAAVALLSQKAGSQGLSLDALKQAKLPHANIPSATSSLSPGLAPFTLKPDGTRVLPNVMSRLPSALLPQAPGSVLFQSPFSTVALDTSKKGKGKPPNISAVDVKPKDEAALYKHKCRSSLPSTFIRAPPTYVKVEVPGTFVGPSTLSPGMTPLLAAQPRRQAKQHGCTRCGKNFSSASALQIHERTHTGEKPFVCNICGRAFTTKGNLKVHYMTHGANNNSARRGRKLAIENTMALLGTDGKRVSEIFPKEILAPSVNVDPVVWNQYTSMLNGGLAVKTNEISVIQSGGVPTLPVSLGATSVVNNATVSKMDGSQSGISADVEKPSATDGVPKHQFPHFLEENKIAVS
Procedure: as §1
A head-to-head comparison between the newly discovered SALL4 degrader QE-18-WG07 and IMiDs (Pomalidomide and Thalidomide) was performed. To assess the differential isoform degradation and biological consequences induced by QE-18-WG07 and IMiDs in cancer cells, the inventors employed the newly developed SALL4 isoform-specific cellular luciferase reporter system in Example 1 (FIG. 1A), and human HCC cell lines (SNU-398 and SNU-182), and NSCLC cell line H661 that have a high SALL4 level endogenously. The inventors treated H1299 cells overexpressing SALL4B_Nluc and the HCC (SNU-398, SNU-182) and NSCLC cells (H661) with increasing concentrations of QE-18-WG07 and IMiDs, and assayed the SALL4B_Nluc, as well as the endogenous SALL4A and B levels by immunoblots described in Example 4.
26S proteasome complex and neddylation was inhibited by cotreating MG132 at 1 and 3 μM and MLN4924 at 10 and 15 μM for 18 h, 20 h, 24 h or 48 h with desired concentrations of QE-18-WG07 in SNU-398, H661 and SNU-182 cells. After 18 h or 24 h of treatment, cells were then lysed and subjected to further protein extraction and immunoblotting by following the protocol in Example 4. For caspase glo assay, 20 h of cotreatment was performed by following the protocol in Example 5. For viability assay, 48 h of cotreatment was carried out by following the protocol in Example 5.
For lentiviral transduction, SNU-398 cells were spun with lentiviral particles containing the aforementioned vectors in RPMI (plus 10% FBS, 8 μg/mL polybrene) at 800 g for 60 minutes at room temperature. 96 h post-infection, cells were seeded in 6-well or 384-well plates and incubated overnight at 37° C., 5% CO2. Cells were then treated with DMSO or QE-18-WG07 at desired concentrations (0.5% final DMSO) for 18 h and 24 h. Immunoblot analysis was subsequently performed with the indicated antibodies by following the protocol in Example 4. […]

In the case of `COc1ccccc1NC(=O)Nc1ccc([N+](=O)[O-])cc1O` [QE-18-WG07], the “cleavage of PARP (apoptosis induction)” value (cleaved PARP) is reported as “prominent cleavage of PARP”, the “effect on the level of RBBP4” value (RBBP4) is reported as “no observable effect” and the “selectivity of anti-proliferative effect, SALL4-high over SALL4-low cancer cells” value [1] is reported as “up to 58 fold”. The viability at 72 h, 30 μM [2] was 30 to 60%, the “degradation of endogenous SALL4B after CRBN knockdown by shRNA” value (SALL4B; CRBN-KD SNU-398 cells, 18 h) was “prevented” and the “SALL4B degradation under MG132 or MLN4924 cotreatment” value (SALL4B; SNU-398, SNU-182 and H661 cells) was “chemically rescued”. It also gave a Dmax (SALL4B; SNU-398 HCC cells, 24 h of treatment, immunoblot quantification) of 87% and a DC50 (SALL4B; SNU-398 cells, 24 h, immunoblot quantification) of about 640 nM.
